Test results taken from patent US20040171566A1, “Antisense modulation of p38 mitogen activated protein kinase expression” (priority 1999, published 2004).
In the oligonucleotide strings, read from the 5' end, every base follows the letter of its sugar. An asterisk marks phosphorothioate; unmarked linkages are phosphodiester. Other units and linkages are bracketed, terminal groups are in braces. A string of capitals states the bases alone. e = 2'-O-(2-methoxyethyl) (MOE); [5mC] = 5-methylcytosine; d = 2'-deoxy (DNA)

Columns and labels:
[1] = system: human p38α mRNA; assay: Human p38α mRNA expression in T-24 cells; settings: for % P38α mRNA EXPRESSION: initial screen of human p38α oligonucleotides
[2] = system: human p38β mRNA; assay: Human p38β mRNA expression in T-24 cells; settings: for % P38β mRNA EXPRESSION: initial screen of human p38α oligonucleotides
[3] = system: human p38α mRNA; assay: Inhibition of human p38α mRNA expression in Jurkat cells, Northern blot; type: cell-based
Procedure: The human Jurkat T-cell line (American Type Culture Collection, Manassas, Va.) was maintained in RPMI 1640 growth media supplemented with 10% fetal bovine serum (FBS; Hyclone, Logan, Utah). HUVEC cells (Clonetics, San Diego, Calif.) were cultivated in endothelial basal media supplemented with 10% FBS (Hyclone, Logan, Utah).
Jurkat cells were grown to approximately 75% confluency and resuspended in culture media at a density of 1×10^7 cells/ml. A total of 3.6×10^6 cells were employed for each treatment by combining 360 μl of cell suspension with oligonucleotide at the indicated concentrations to reach a final volume of 400 μl. Cells were then transferred to an electroporation cuvette and electroporated using an Electrocell Manipulator 600 instrument (Biotechnologies and Experimental Research, Inc.) employing 150 V, 1000 μF, at 13 Ω. Electroporated cells were then transferred to conical tubes containing 5 ml of culture media, mixed by inversion, and plated onto 10 cm culture dishes.
Total mRNA was isolated using the RNEASY7 Mini Kit (Qiagen, Valencia, Calif.; similar kits from other manufacturers may also be used), separated on a 1% agarose gel, transferred to HYBOND™-N+ membrane (Amersham Pharmacia Biotech, Piscataway, N.J.), a positively charged nylon membrane, and probed. p38 MAPK probes were made using the Prime-A-Gene7 kit (Promega Corporation, Madison, Wis.), a random primer labeling kit, using mouse p38α or p38β cDNA as a template. A glyceraldehyde 3-phosphate dehydrogenase (G3PDH) probe was purchased from Clontech (Palo Alto, Calif.), Catalog Number 9805-1. The fragments were purified from low-melting temperature agarose, as described in Maniatis, T., et al., Molecular Cloning: A Laboratory Manual, 1989. The G3PDH probe was labeled with REDIVUE™ ^32P-dCTP (Amersham Pharmacia Biotech, Piscataway, N.J.) and Strip-EZ labelling kit (Ambion, Austin, Tex.). mRNA was quantitated by a PhosphoImager (Molecular Dynamics, Sunnyvale, Calif.).
Jurkat cells were grown and treated as described above except the concentration of oligonucleotide was varied as indicated in Table 3. […] Maximum inhibition was approximately 70% with 16500 (SEQ ID NO 17).

[4] = initial screen of human p38β oligonucleotides
[5] = dose 50 nM, relative to control oligonucleotide = 100%
[6] = dose 100 nM, relative to control oligonucleotide = 100%
[7] = dose 200 nM, relative to control oligonucleotide = 100%
[8] = Jurkat cells electroporated with 10 μM oligonucleotide, Northern blot

“TGTAAGCTTCTGACATTTCA (phosphorothioate gapmer, further chemistry not given here) [ISIS 100865]” was tested, and the “% P38α mRNA EXPRESSION” value [1] was 64% and the “% P38β mRNA EXPRESSION” value [2] was 63%.
For “TACCAGCGCGTGGCCACATA (antisense eTeAe[5mC]e[5mC]eA*dG*d[5mC]*dG*d[5mC]*dG*dT*dG*dG*d[5mC]*d[5mC]*eAe[5mC]eAeTeA) [ISIS 107875]”, the “% p38α mRNA EXPRESSION” value [1, 4] was 112%, the “% p38β mRNA Expression” value [2, 5] was 82% and the “% p38β mRNA Expression” value [2, 6] was 38%. The “% p38β mRNA Expression” value [2, 7] was 40% and the “% p38β mRNA Expression” value [2, 4] was 92%.
In the case of “TCAAAGGACTGATCATAAGG (eT*e[5mC]*eA*eA*eA*dG*dG*dA*d[5mC]*dT*dG*dA*dT*d[5mC]*dA*eT*eA*eA*eG*eG; antisense) [ISIS 100874]”, the “% p38α mRNA EXPRESSION” value ([1]; dose 50 nM) is reported as 47%, the “% p38α mRNA EXPRESSION” value ([1]; dose 100 nM) is reported as 27% and the “% p38α mRNA EXPRESSION” value ([1]; dose 200 nM) is reported as 13%. The “% P38α mRNA EXPRESSION” value [1] was 42% and the “% P38β mRNA EXPRESSION” value [2] was 76%.
“ATGGACGTGGCCGGCGTGAA (antisense eAeTeGeGeA*d[5mC]*dG*dT*dG*dG*d[5mC]*d[5mC]*dG*dG*d[5mC]*eGeTeGeAeA) [ISIS 107872]” was tested, and the “% p38α mRNA EXPRESSION” value [1, 4] was 123%, the “% p38β mRNA Expression” value [2, 5] was 71% and the “% p38β mRNA Expression” value [2, 6] was 13%. For the same sequence, the “% p38β mRNA Expression” value [2, 7] was 22% and the “% p38β mRNA Expression” value [2, 4] was 57%.
“CACCGCCACCTTCTGGCGCA (antisense e[5mC]eAe[5mC]e[5mC]eG*d[5mC]*d[5mC]*dA*d[5mC]*d[5mC]*dT*dT*d[5mC]*dT*dG*eGe[5mC]eGe[5mC]eA) [ISIS 107870]” was tested, and the “% p38α mRNA EXPRESSION” value [1, 4] was 97% and the “% p38β mRNA Expression” value [2, 4] was 74%.
“AGCTTCTTCACTGCCACACG (phosphorothioate gapmer, further chemistry not given here) [ISIS 100862]” was tested, and the “% P38α mRNA EXPRESSION” value [1] was 56% and the “% P38β mRNA EXPRESSION” value [2] was 45%.
For “TGCCCTGGAGCAGCTCAGCC (antisense eTeGe[5mC]e[5mC]e[5mC]*dT*dG*dG*dA*dG*d[5mC]*dA*dG*d[5mC]*dT*e[5mC]eAeGe[5mC]e[5mC]) [ISIS 107878]”, the “% p38α mRNA EXPRESSION” value [1, 4] was 112%, the “% p38β mRNA Expression” value [2, 5] was 70% and the “% p38β mRNA Expression” value [2, 6] was 43%. For the same sequence, the “% p38β mRNA Expression” value [2, 7] was 27% and the “% p38β mRNA Expression” value [2, 4] was 54%.
“CTGAGACATTTTCCAGCGGC (phosphorothioate gapmer, further chemistry not given here) [ISIS 100860]” was tested, and the “% P38α mRNA EXPRESSION” value [1] was 73% and the “% P38β mRNA EXPRESSION” value [2] was 71%.
“TATGGTCTGTACCAGGAAAC (chimeric deoxy gapped, phosphorothioate, further chemistry not given here) [ISIS 100870]” was tested, and the “% P38α mRNA EXPRESSION” value [1] was 51%.
For “AAGACCGGGCCCGGAATTCC (antisense eA*eA*eG*eA*e[5mC]*e[5mC]*dG*dG*dG*dC*dC*dC*dG*dG*eA*eA*eT*eT*e[5mC]*e[5mC]) [ISIS 16486]”, the “% mRNA EXPRESSION” value [3, 8] was 212%.
“ATGTTCTTCCAGTCAACAGC (antisense eA*eT*eG*eT*eT*e[5mC]*dT*dT*dC*dC*dA*dG*dT*dC*eA*eA*e[5mC]*eA*eG*e[5mC]) [ISIS 16498]” was tested, and the “% mRNA EXPRESSION” value [3, 8] was 88% and the “% mRNA Inhibition” value [3, 8] was 12%.
In the case of “TGTGCCGAATCTCGGCCTCT (antisense eT*eG*eT*eG*e[5mC]*e[5mC]*dG*dA*dA*dT*dC*dT*dC*dG*eG*e[5mC]*e[5mC]*eT*e[5mC]*eT) [ISIS 16490]”, the “% mRNA EXPRESSION” value [3, 8] is reported as 152%, the “% mRNA Inhibition” value [3, 8] is reported as “no inhibition” and the “% mRNA EXPRESSION” value ([3]; Jurkat cells, dose 2.5 nM) is reported as 112%. For the same sequence, the “% mRNA EXPRESSION” value ([3]; Jurkat cells, dose 5 nM) was 109%, the “% mRNA EXPRESSION” value ([3]; Jurkat cells, dose 10 nM) was 104% and the “% mRNA EXPRESSION” value ([3]; Jurkat cells, dose 20 nM) was 97%. The “% mRNA Inhibition” value ([3]; Jurkat cells, dose 20 nM) was 3%.
In the case of “CGGACCAGATATCCACTGTT (antisense e[5mC]eGeGeAe[5mC]*d[5mC]*dA*dG*dA*dT*dA*dT*d[5mC]*d[5mC]*dA*e[5mC]eTeGeTeT) [ISIS 107877]”, the “% p38β mRNA Expression” value [2, 5] is reported as 50%, the “% p38β mRNA Expression” value [2, 6] is reported as 34% and the “% p38β mRNA Expression” value [2, 7] is reported as 22%.
“TCCTGAGACATTTTCCAGCG (antisense eT*e[5mC]*e[5mC]*eT*eG*eA*dG*dA*dC*dA*dT*dT*dT*dT*e[5mC]*e[5mC]*eA*eG*e[5mC]*eG) [ISIS 16494]” was tested, and the “% mRNA EXPRESSION” value [3, 8] was 72% and the “% mRNA Inhibition” value [3, 8] was 28%.
